The target in one experiment is Cbl-b (Homo sapiens, UniProt Q13191). Kind of experiment: Cbl-b activity assay (Cbl-b inhibition assay), TR-FRET of Cbl-b interaction with UbcH5B-Ub. The note with it: assay buffer with 100 mM NaCl, 60 nM Src kinase; read-out: Cbl-b activity IC50. It counts as biochemical. An outline of the steps: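 Compound-treated Cbl-b was incubated 1.5 h with Src kinase (60 nM final; 30 nM for asterisked values, which also used 50 mM instead of 100 mM NaCl), 1 mM ATP and 5 mM MgCl2. Binding to fluorescent Ub-loaded UbcH5B (C85K mutant) was then read by TR-FRET after 1 h more.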

The test system of experiment [1] is T-cell. The experiment can be described thus: CD25 cell surface staining on T-cells co-stimulated with anti-CD3 and anti-CD28 antibody (Biological Example 2). It counts as cell-based, human. The conditions noted are these: Homo sapiens, T-cell, primary human total T-cells, baseline = anti-CD3/anti-CD28 stimulated cells without inhibitor, read-out: CD25 staining, Anti-CD3/Anti-CD28 stimulation, fold change over baseline; for fold induction at 0.3 µM: 0.3 μM compound; for fold induction at 1 µM: 1 μM compound; for fold induction at 4 µM: 4 μM compound. An outline of the steps:
(§1)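 Values are fold-change over baseline: readings (IL-2 release, CD25 staining) from inhibitor-treated T-cells divided against untreated cells […]. No detailed procedure stated.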

Experiment [2] relates to T-cell. The experiment can be described thus: IL-2 secretion from T-cells co-stimulated with anti-CD3 and anti-CD28 antibody (Biological Example 2). Type of experiment: cell-based, human. The conditions noted are these: Homo sapiens, T-cell, primary human total T-cells, baseline = anti-CD3/anti-CD28 stimulated cells without inhibitor, read-out: IL-2 secretion, Anti-CD3/Anti-CD28 stimulation, fold change over baseline; for fold induction at 0.3 µM: 0.3 μM compound; for fold induction at 1 µM: 1 μM compound; for fold induction at 4 µM: 4 μM compound. An outline of the steps: as §1

Chain of Cbl-b (Q13191 36-427): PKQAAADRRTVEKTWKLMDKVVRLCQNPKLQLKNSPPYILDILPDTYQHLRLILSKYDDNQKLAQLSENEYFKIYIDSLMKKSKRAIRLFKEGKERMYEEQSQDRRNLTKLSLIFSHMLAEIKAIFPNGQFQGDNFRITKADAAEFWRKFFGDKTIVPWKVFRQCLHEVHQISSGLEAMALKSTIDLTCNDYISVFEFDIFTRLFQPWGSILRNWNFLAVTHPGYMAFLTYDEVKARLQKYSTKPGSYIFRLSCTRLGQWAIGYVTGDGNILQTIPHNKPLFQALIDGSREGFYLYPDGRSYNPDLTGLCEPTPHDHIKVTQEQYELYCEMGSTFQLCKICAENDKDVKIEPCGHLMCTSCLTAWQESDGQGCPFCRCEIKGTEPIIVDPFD

As a reminder, the IC50 is the concentration that inhibits the measured activity by half. On to `Cn1cnnc1C(F)(F)[C@](C)(F)c1cccc(N2Cc3c(cc(CN4CC[C@@H](F)C4)cc3C(F)(F)F)C2=O)c1` [Compound 450], for which, at Cbl-b, the IC50 was less than 100 nM. Further, in the experiment with T-cell [1], the fold induction at 0.3 µM is 1.31 to 1.5, the fold induction at 1 µM was 1.51 to 1.75 and the fold induction at 4 µM lay within 1.51 to 1.75. In the experiment on T-cell [2], the fold induction at 0.3 µM lay in the range of 2.51 to 5, the fold induction at 1 µM was greater than 7.5 and the fold induction at 4 µM is greater than 7.5.

For `COC1CN(Cc2cc3c(c(C(F)(F)F)c2)CN(c2cccc([C@@](C)(F)C(F)(F)c4nncn4C)c2)C3=O)C1` [Compound 452, (R)-6-((3-methoxyazetidin-1-yl)methyl)-2-(3-(1,1,2-trifluoro-1-(4-methyl-4H-1,2,4-triazol-3-yl)propan-2-yl)phenyl)-4-(trifluoromethyl)isoindolin-1-one], the IC50 on Cbl-b is less than 100 nM. In addition, in the experiment on T-cell [1], the fold induction at 0.3 µM fell in the range of 1.01 to 1.3, the fold induction at 1 µM fell in the range of 1.31 to 1.5 and the fold induction at 4 µM lay within 1.31 to 1.5. Besides, in the experiment with T-cell [2], the fold induction at 0.3 µM fell in the range of 2.51 to 5, the fold induction at 1 µM fell in the range of 5 to 7.5 and the fold induction at 4 µM is greater than 7.5.

Take `Cn1cnnc1C(F)(F)[C@](C)(F)c1cccc(N2Cc3c(cc(CN4CC[C@@H](C#N)C4)cc3C(F)(F)F)C2=O)c1` [Compound 455, (R)-1-((3-oxo-2-(3-((R)-1,1,2-trifluoro-1-(4-methyl-4H-1,2,4-triazol-3-yl)propan-2-yl)phenyl)-7-(trifluoromethyl)isoindolin-5-yl)methyl)pyrrolidine-3-carbonitrile]: at Cbl-b, the concentration for half-maximal inhibition (IC50) is less than 100 nM. Moreover, in the experiment with T-cell [1], the fold induction at 0.3 µM was 1.01 to 1.3, the fold induction at 1 µM lay in the range of 1.31 to 1.5 and the fold induction at 4 µM lay in the range of 1.31 to 1.5. In the experiment on T-cell [2], the fold induction at 0.3 µM was 5 to 7.5, the fold induction at 1 µM is greater than 7.5 and the fold induction at 4 µM is greater than 7.5.

Consider `C[C@H](Cc1nncn1C)c1cccc(NC(=O)c2cc3cc(N4CCNCC4)ccc3cn2)c1` [Compound 472, N-{3-[(2R)-1-(4-methyl-4H-1,2,4-triazol-3-yl)propan-2-yl]phenyl}-6-(piperazin-1-yl)isoquinoline-3-carboxamide], for which the concentration for half-maximal inhibition (IC50) at Cbl-b is less than 100 nM. Also, in the experiment with T-cell [1], the fold induction at 0.3 µM is 1.01 to 1.3, the fold induction at 1 µM was in the range of 1.01 to 1.3 and the fold induction at 4 µM fell in the range of 1.01 to 1.3. In the experiment on T-cell [2], the fold induction at 0.3 µM was less than 1, the fold induction at 1 µM lay in the range of 1.01 to 2.5 and the fold induction at 4 µM was 2.51 to 5.

Regarding `Cn1cnnc1CC1(c2cccc(N3Cc4c(cc(CN5CC6(CC6)C5)cc4C(F)(F)F)C3=O)c2)COC1` [Compound 487, 6-{5-azaspiro[2.3]hexan-5-ylmethyl}-2-(3-{3-[(4-methyl-1,2,4-triazol-3-yl)methyl]oxetan-3-yl}phenyl)-4-(trifluoromethyl)-3H-isoindol-1-one], on Cbl-b, the IC50 was less than 100 nM. Moreover, in the experiment on T-cell [1], the fold induction at 0.3 µM lay within 1.31 to 1.5 and the fold induction at 1 µM fell in the range of 1.31 to 1.5. Moreover, in the experiment on T-cell [2], the fold induction at 0.3 µM is greater than 7.5 and the fold induction at 1 µM was greater than 7.5.

For the compound `Cn1cnnc1CC1(c2cccc(NC(=O)c3cc(CN4CC[C@H](F)C4)cc(C4CC4)n3)c2)COC1` [Compound 496, 6-cyclopropyl-4-{[(3S)-3-fluoropyrrolidin-1-yl]methyl}-N-(3-{3-[(4-methyl-1,2,4-triazol-3-yl)methyl]oxetan-3-yl}phenyl)pyridine-2-carboxamide], the half-maximal inhibitory concentration (IC50) at Cbl-b is less than 100 nM. The fold induction at 0.3 µM with T-cell [1] was 1.51 to 1.75; in the experiment with T-cell [2], greater than 7.5. The values for the fold induction at 1 µM in the experiment on T-cell [1] and in the experiment on T-cell [2] were 1.51 to 1.75 and greater than 7.5, respectively.

Regarding `Cn1cnnc1CC1(c2cccc(NC(=O)c3cc(CN4CCC5(CC5)C4)cc(C4CC4)n3)c2)COC1` [Compound 519, 4-((5-azaspiro[2.4]heptan-5-yl)methyl)-6-cyclopropyl-N-(3-(3-((4-methyl-4H-1,2,4-triazol-3-yl)methyl)oxetan-3-yl)phenyl)picolinamide], on Cbl-b, the IC50 was less than 100 nM. The fold induction at 0.3 µM was 1.31 to 1.5 in the experiment on T-cell [1] and greater than 7.5 with T-cell [2]. Also, the fold induction at 1 µM with T-cell [1] is 1.31 to 1.5; in the experiment with T-cell [2] it was greater than 7.5.

For the compound `Cn1cnnc1CC1(c2cccc(N3Cc4c(cc(CN5CCC6(CC6)C5)cc4C(F)(F)F)C3=O)c2)COC1` [Compound 520, 6-((5-azaspiro[2.4]heptan-5-yl)methyl)-2-(3-(3-((4-methyl-4H-1,2,4-triazol-3-yl)methyl)oxetan-3-yl)phenyl)-4-(trifluoromethyl)isoindolin-1-one], on Cbl-b, the concentration for half-maximal inhibition (IC50) is less than 100 nM. Further, in the experiment on T-cell [1], the fold induction at 0.3 µM lay in the range of 1.31 to 1.5 and the fold induction at 1 µM lay within 1.31 to 1.5. Moreover, in the experiment with T-cell [2], the fold induction at 0.3 µM was greater than 7.5 and the fold induction at 1 µM is greater than 7.5.

Take `C[C@@H](c1cc2c(c(C(F)(F)F)c1)CN(c1cccc(C3(Cc4nncn4C)COC3)c1)C2=O)N1C[C@H]2C[C@H]2C1` [Compound 541a, 6-((1S)-1-(3-azabicyclo[3.1.0]hexan-3-yl)ethyl)-2-(3-(3-((4-methyl-4H-1,2,4-triazol-3-yl)methyl)oxetan-3-yl)phenyl)-4-(trifluoromethyl)isoindolin-1-one]: the concentration for half-maximal inhibition (IC50) at Cbl-b is less than 100 nM. In addition, in the experiment with T-cell [1], the fold induction at 0.3 µM fell in the range of 1.31 to 1.5 and the fold induction at 1 µM lay within 1.31 to 1.5. Moreover, in the experiment with T-cell [2], the fold induction at 0.3 µM is greater than 7.5 and the fold induction at 1 µM was greater than 7.5.

Regarding `C[C@@H](c1cc2c(c(C(F)(F)F)c1)CN(c1cccc(C3(Cc4nncn4C)COC3)c1)C2=O)N1CCC(C)(F)CC1` [Example 553a, (S)-6-(1-(4-fluoro-4-methylpiperidin-1-yl)ethyl)-2-(3-(3-((4-methyl-4H-1,2,4-triazol-3-yl)methyl)oxetan-3-yl)phenyl)-4-(trifluoromethyl)isoindolin-1-one], the IC50 on Cbl-b is less than 100 nM. Further, in the experiment on T-cell [1], the fold induction at 0.3 µM was greater than 1.76 and the fold induction at 1 µM is greater than 1.76. Besides, in the experiment with T-cell [2], the fold induction at 0.3 µM is greater than 7.5 and the fold induction at 1 µM is greater than 7.5.

For `C[C@H](c1cc2c(c(C(F)(F)F)c1)CN(c1cccc(C3(Cc4nncn4C)COC3)c1)C2=O)N1CCC(C)(F)CC1` [Example 553b, (R)-6-(1-(4-fluoro-4-methylpiperidin-1-yl)ethyl)-2-(3-(3-((4-methyl-4H-1,2,4-triazol-3-yl)methyl)oxetan-3-yl)phenyl)-4-(trifluoromethyl)isoindolin-1-one], the half-maximal inhibitory concentration (IC50) on Cbl-b is less than 100 nM. Moreover, in the experiment on T-cell [1], the fold induction at 0.3 µM is greater than 1.76 and the fold induction at 1 µM was greater than 1.76. For the same compound, in the experiment with T-cell [2], the fold induction at 0.3 µM was greater than 7.5 and the fold induction at 1 µM is greater than 7.5.

The values are drawn from patent US20220324835A1 (Nurix Therapeutics, Inc., priority 2018, published 2022).
